From PMC7284125, “Identification of annotated bioactive molecules that impair motility of the blood fluke Schistosoma mansoni” (International Journal for Parasitology: Drugs and Drug …, 2020)
Like-named read-outs stand apart in the source and are kept apart here.

Columns and labels:
Assay type in all cases: cell-based, Schistosoma mansoni
[1] = test system: S. mansoni schistosomulae; test: Phenotypic primary screen assay on schistosomulae (phenotype; viability by methylene blue dye exclusion); settings: for Viability (%) / Phenotype: three-day-old schistosomulae, 10 μM, 24 h; for Viability (%): calculated 5 days post compound exposure; for Phenotype: estimated 5 days post compound exposure
Method: Puerto Rican strain Biomphalaria glabrata snails infected with S. mansoni were kindly provided by Dr. Fred Lewis (Biomedical Research Institute and BEI Resources, MD, USA). Schistosomulae were obtained by exposing six to eight weeks-old snails to continuous light for 2 h at 32 °C. […] At this point, animals with internal dark granulations and with no observable body contraction/relaxation cycles were considered dead.
Schistosomulae were monitored under a stereo microscope (SMZ1270, Nikon). Phenotypic observations were made by analyzing schistosomulae, 24 h after drug addition to assess any immediate effect and five days post-compound exposure to observe long-term impacts on both the movement and overall body shape in comparison to control animals exposed to DMSO only.

[2] = test system: S. mansoni schistosomulae; test: Motility assay on schistosomulae (pixel displacement, relative to DMSO control); settings: for activity at 1 µM: Schistosoma mansoni, read-out: Fractional motility
Method: Puerto Rican strain Biomphalaria glabrata snails infected with S. mansoni were kindly provided by Dr. Fred Lewis (Biomedical Research Institute and BEI Resources, MD, USA). Schistosomulae were obtained by exposing six to eight weeks-old snails to continuous light for 2 h at 32 °C. The resulting suspension of cercaria was then mechanically transformed as described ([Lewis, 2001]) and cultured in Opti-MEM/antibiotics (Thermo Fisher Scientific, Waltham, MA) containing 100 μg/mL streptomycin and 100 units/ml penicillin supplemented with 5% fetal bovine serum (FBS; Thermo Fisher). Parasite cultures were incubated at 37 °C with 5% CO2 for at least 10 days with no apparent loss of viability. At this point, animals with internal dark granulations and with no observable body contraction/relaxation cycles were considered dead.
(§1) Schistosomulae (200/well) and adult parasites (unpaired worms) were maintained in 300 μL OPTI-MEM with 5% dialyzed FBS (without antibiotics) and exposed to compounds at 1 and 10 μM for 24 h. A kinetic assay consisting of 1, 3, 6 and 12 h incubation times was performed on selected hits by motility monitoring using a stereo microscope (SMZ1270, Nikon) for adults and an inverted microscope for schistosomulae (eclipse TE2000-U, Nikon) connected to a monochrome camera (DS-Qi2, Nikon) for image acquisition. Images were recorded at a rate of 10 frames/s for a period of 1 min and videos were analyzed using ImageJ software (version 1.41, NIH, USA). Parasite movement quantification and data analysis protocols were applied using the pixel displacement method ([Patocka et al., 2014]; [Rashid et al., 2015]) and compared to control parasites treated with DMSO. Parasites were then washed several times in Opti-MEM, 5% FBS and incubated up to an additional three days (schistosomulae) or five days (adult worms) at 37 °C, 5% CO2 and motility was recorded as described above.

S. mansoni adult worms = test: Motility assay on adult parasites (pixel displacement, relative to DMSO control); settings: 10 μM; for Fractional motility: secondary screen; for motility phenotype in words: adults, long-term after washout
Method: Adult parasites were collected from 40 day-old female CD1 mice (Charles River) previously inoculated by the tail infection method ([Lewis, 2001]). Six weeks post-infection, mice were sacrificed, and adult worms extracted after perfusion of in the hepatic portal vein and mesenteric venules ([Lewis, 2001]). Animal procedures were reviewed and approved by the Facility Animal Care Committee of McGill University (Protocol No. 3346) and were conducted in accordance with the guidelines of the Canadian Council on Animal Care.
as §1

[3] = schistosomulae, secondary screen, 24h exposure, read at D1, 1 µM
[4] = schistosomulae, secondary screen, 24h exposure, read at D1, 10 µM
[5] = schistosomulae, secondary screen, 24h exposure, read at D5, 1 µM
[6] = schistosomulae, secondary screen, 24h exposure, read at D5, 10 µM

Structure (SMILES) | Viability (%) [1] [%] | Phenotype [1] | Fractional motility [2, 3] | Fractional motility [2, 4] | Fractional motility [2, 5] | Fractional motility [2, 6] | Fractional motility (S. mansoni adult worms; D1, Female adult worms) | Fractional motility (S. mansoni adult worms; D1, Male adult worms) | Fractional motility (S. mansoni adult worms; D5, Female adult worms) | Fractional motility (S. mansoni adult worms; D5, Male adult worms) | also measured
O=C(Nc1ccccc1-c1cn2c(CN3CCNCC3)csc2n1)c1cnc2ccccc2n1 [SRT1720] | 0 | dark, granulated | 20.54 | -1.00 | 0.36 | -1.00 | 3.42 | 2.50 | 0.62 | 1.34 | effect on viability of schistosomulae in words ([1]; 24 h incubation, five days): lethal
C/C(=N\NC(=S)N1CCC1)c1ccccn1 [NSC319726] | 68 | dark, granulated | 0.0562 | 0.59 | -0.75 | -0.93 | -0.13 | -0.16 | -0.84 | -0.08 | 
CCCCc1oc2ccccc2c1C(=O)c1cc(I)c(OCCN(CC)CC)c(I)c1 [Amiodarone] |  | big, granulated |  | -0.80 |  | -0.98 | -0.67 | -0.41 | -0.58 | -0.38 | activity at 1 µM ([2]; 120 h, schistosomulae, secondary screen, 24h exposure, read at D5, 1 µM): 78%; activity at 1 µM [2, 3]: -11%
CCOC(=O)CCNc1cc(N2CCc3ccccc3CC2)nc(-c2ccccn2)n1 [GSK J4] | 5 | big, dark, granulated | 0.46 | -0.85 | 0.88 | -1.00 | -0.0455 | -0.11 | -0.64 | -0.63 | Fractional motility ([2]; schistosomulae, 1h exposure, read at D1, 10 µM): 0.43; Fractional motility ([2]; schistosomulae, 1h exposure, read at D5, 10 µM): 0.28; Fractional motility ([2]; schistosomulae, 3h exposure, read at D1, 10 µM): -0.55; Fractional motility ([2]; schistosomulae, 3h exposure, read at D5, 10 µM): -0.56; Fractional motility ([2]; schistosomulae, 6h exposure, read at D1, 10 µM): -0.78; Fractional motility ([2]; schistosomulae, 6h exposure, read at D5, 10 µM): -0.70; motility phenotype in words (S. mansoni adult worms): Significant hypomotility
Cc1cnc(-c2cc(N3CCN(C(=O)CCS(C)(=O)=O)CC3)ncc2Cl)c(C)c1 [PF-5274857] | 96.5 | granulated | -0.26 | 0.15 | -0.49 | 4.02 | -0.02 | -0.62 | -0.13 | -0.56 | 
O=C(/C=C/c1ccc2ccccc2n1)c1ccncc1 [PFK15] | 63 | dark, granulated | 1.64 | 3.41 | -0.50 | -0.80 | -0.30 | 4.15 | -0.50 | 0.98 | 
O=c1[nH]c2ccc(Cl)cc2c(N[C@@H]2CN3CCC2CC3)c1-c1nc2ccccc2[nH]1 [CHIR-124] | 77 | big |  |  |  |  | 4.53 | 10.48 | -0.48 | -0.25 | Fractional motility ([2]; Selleckchem customized library secondary screen, 24h, D1, 1 µM): 6.60; Fractional motility ([2]; Selleckchem customized library secondary screen, 24h, D1, 10 µM): 100.65
CCCCCCCCCCCCCCCCn1cc[n+](Cc2ccccc2)c1C.[I-] [NH125] | 18 | big, dark, granulated | 1.58 | -0.66 | -0.08 | -0.55 | -0.74 | 0.53 | -0.89 | -0.87 | motility phenotype in words (S. mansoni adult worms): Significant hypomotility
